The values below come from patent publication US10302632B2, “Macromolecular conjugates for visualization and separation of proteins and cells” (USTAV ORGANICKE CHEMIE A BIOCHEMIE AV CR, V.V.I., priority 2015, dated 2019).

The Ki is the dissociation constant of the complex between target and ligand, obtained from inhibition or displacement.

Assay [1] has as its target T1, recombinant extracellular GCPII (Avi-GCPII) (Homo sapiens, UniProt Q04609).
T1 construct: using a recombinant extracellular GCPII (Avi-GCPII; prepared according to [13]); Avi-tag; made in house
Nature of the assay: Inhibition of GCPII hydrolytic activity (HPLC assay). It is filed as biochemical. The procedure: Inhibitory potency of the inhibitors and polymeric conjugates on the hydrolytic activity of GCPII were tested by HPLC (described in [12]) using a recombinant extracellular GCPII (Avi-GCPII; prepared according to [13]). 210 pg of GCPII was mixed with a solution of 25 mM Bis-Tris propane, 150 mM NaCl, pH 7.4, 0.001% monododecyl(oktaethylenglycol)ether (Affymetrix, Octaethylene glycol monododecyl ether) and inhibitor solution to a total volume of 180 μl in a 96-well plate. Ten different inhibitor concentrations covering the whole inhibition curve were used. Reactions were first incubated 5 min at 37° C., then initiated by addition of 20 μl of pteroyl-bis(L-glutamate) to a final concentration of 400 nM and incubated at 37° C. for 20 min. […] Subsequently, 100 μl of the reaction mixture was analyzed in Agilent 1200 Infinity (Agilent Technologies, Inc.) on an RP-HPLC column Waters Acquity UPLC HSS T3 1.8 μm, 2.1×100 mm (Waters). HPLC analysis was performed isocratically in 2.7% acetonitrile and 97.3% 20 mM phosphate, pH 6.0. Substrate and product absorbance was measured at 281 nm. IC50 values were obtained from GraFit v.5.0.11 (Erithacus Software Ltd.).
Assuming competitive type of inhibition and using the values of KM and kcat, the Ki values for each inhibitor were determined from the Cheng-Prusoff equation [14].

In the next assay the target is T2, HIV-1 protease (Human immunodeficiency virus type 1 group M subtype B, UniProt P04585).
T2 construct: HIV-1 protease is a homodimeric aspartic protease
Put plainly: Inhibition of HIV-1 protease activity (spectrophotometric, chromogenic peptide substrate). It is filed as biochemical. As to conditions: pH 4.7, substrate 16 μM. The procedure:
The inhibition analyses were performed by spectrophotometric assay using the chromogenic peptide substrate KARVNle*NphEANle-NH2 as previously described.
The 1 ml reaction mixture contained 100 mM sodium acetate, 300 mM NaCl, pH 4.7, 6.8 pmol of HIV-1 protease and inhibitor in concentrations ranging between 2 and 130 nM. Substrate was added to a final concentration of 16 μM. Afterwards, the hydrolysis of substrate was followed as a decrease in absorbance at 305 nm using a UNICAM UV500 UV-VIS spectrophotometer (Thermo, Cambridge, Mass.). The data were analyzed using the equation for competitive inhibition according to Williams and Morrison. The mechanism of inhibition was determined by analysis of Lineweaver-Burk plots.

In a further assay the target is CA-IX (Homo sapiens, UniProt Q16790). Nature of the assay: Affinity isolation (pull-down) of CA-IX from HT-29 cell lysate. It is filed as binding. More on the design: HT-29 cell line endogenously expressing CA-IX; endogenous in cells; host or cells: HT-29. As to conditions: conjugate on Streptavidin Sepharose, Western blot. The procedure:
HT29 cells (cultured in 100 mm Petri dish) endogenously expressing CA-IX were lysed by sonication in a water bath (3 min/0° C.) in 450 μl of 50 mM Tris-HCl, 150 mM NaCl, pH 7.4, 1% Tween 20. Resulting cell lysate was further diluted in 20 mM Tris-HCl, 150 mM NaCl, 0.1% Tween 20, pH 7.4 (TBST) to a final protein concentration of 360 μg/ml. Meanwhile, Conjugate 3 and Conjugate 2 (negative control showing nonspecific binding) were pre-bound to 25 μl of Streptavidin Sepharose (200 nM solution in 200 μl of TBST, 1 hour, 6° C.), and after washing with 3×200 μl TBST, the resin was mixed with 200 μl of HT-29 cell lysate and incubated at 25° C. for 3 hours. The resin was then washed with 3×200 μl of TBST and subsequently, proteins were eluted with 25 μl of sample buffer for SDS-PAGE and with heating to 98° C. for 10 min.
To compare the effectiveness of CA-IX isolation with Conjugate 3, CA-IX was also isolated with M75 antibody. The experiment was performed analogously to experiment with polymeric conjugates: 1 μg of antibody was pre-bound to 20 μl of Protein G Sepharose the procedure followed as described above. […]
After isolation, samples were separated by SDS-PAGE electrophoresis and the gel was blotted to a nitrocellulose membrane (wet blot 100 V/1 hour). […] Chemiluminescence was recorded with ChemiDoc It™ 600 Imaging System (UVP).

The mark [2] stands for this setting: read-out: Ki [nM] towards HIV-1 protease.

Where two headings read alike, the source gives them in different places. Square brackets hold non-standard residues; d marks the D form. Peptide text beside a SMILES is read from it. Sta = CC(C)C[C@H](N)[C@@H](O)CC(=O)O; AEEA = NCCOCCOCC(=O)O

T1 sequence (Q04609 44-750 limits assumed): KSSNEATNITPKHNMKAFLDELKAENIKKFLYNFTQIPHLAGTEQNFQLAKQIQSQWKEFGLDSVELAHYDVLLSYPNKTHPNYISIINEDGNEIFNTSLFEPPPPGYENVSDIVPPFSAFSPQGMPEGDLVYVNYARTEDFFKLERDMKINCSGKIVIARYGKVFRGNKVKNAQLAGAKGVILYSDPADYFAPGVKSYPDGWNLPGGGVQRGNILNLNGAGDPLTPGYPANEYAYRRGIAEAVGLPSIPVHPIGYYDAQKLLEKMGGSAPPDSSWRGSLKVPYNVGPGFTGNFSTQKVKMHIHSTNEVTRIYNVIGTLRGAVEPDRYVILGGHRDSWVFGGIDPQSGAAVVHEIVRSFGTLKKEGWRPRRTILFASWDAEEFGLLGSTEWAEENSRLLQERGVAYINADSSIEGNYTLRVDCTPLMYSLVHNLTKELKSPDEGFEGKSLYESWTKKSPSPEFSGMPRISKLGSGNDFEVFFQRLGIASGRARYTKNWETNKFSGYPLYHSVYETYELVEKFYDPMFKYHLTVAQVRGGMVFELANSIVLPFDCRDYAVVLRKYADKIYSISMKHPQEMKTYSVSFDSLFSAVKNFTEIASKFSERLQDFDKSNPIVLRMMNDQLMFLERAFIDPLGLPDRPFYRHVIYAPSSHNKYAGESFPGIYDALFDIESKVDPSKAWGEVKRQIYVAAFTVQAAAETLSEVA

On to `NCCOCCOCCOCCOCCOCCC(=O)N(CCCC[C@H](NC(=O)N[C@@H](CCC(=O)O)C(=O)O)C(=O)O)Cc1ccc(Br)cc1` [Compound A, (24S,28S)-19-(4-bromobenzyl)-24,28,30-tricarboxy-18,26-dioxo-3,6,9,12,15-pentaoxa-19,25,27-triazatriakontan-1-aminium 2,2,2-trifluoroacetate], for which, in assay [1], the Ki came to 2030 pM.
Turning to `CC(C)[C@H](NC(=O)COCCOCCNC(=O)COCCOCCN)C(=O)N[C@@H](Cc1ccccc1)C[C@H](O)[C@H](Cc1ccccc1)NC(=O)OCc1cncs1` [compound C, (5S,6S,8S,11S)-5,8-dibenzyl-6-hydroxy-11-isopropyl-3,10,13,22-tetraoxo-1-(thiazol-5-yl)-2,15,18,24,27-pentaoxa-4,9,12,21-tetraazanonacosan-29-aminium 2,2,2-trifluoroacetate], the Ki at HIV-1 protease (setting [2]) is 0.012 ± 0.001 nM; at HIV-1 protease (read-out: Ki towards HIV-1 protease), 0.013 nM.
Turning to `CC(C)C[C@H](NC(=O)[C@H](C)NC(=O)C[C@H](O)[C@H](CC(C)C)NC(=O)[C@@H](NC(=O)[C@@H](NC(=O)COCCOCCNC(=O)COCCOCCN)C(C)C)C(C)C)[C@@H](O)CC(=O)O` [compound D, (19S,22S,25S,26S,30S,33S)-33-((S)-2-carboxy-1-hydroxyethyl)-26-hydroxy-25-isobutyl-19,22-diisopropyl-30,35-dimethyl-8,17,20,23,28,31-hexaoxo-3,6,12,15-tetraoxa-9,18,21,24,29,32-hexaazahexatriacontan-1-aminium] (H-[AEEA][AEEA]VV[Sta]A[Sta]-OH), the Ki on HIV-1 protease (setting [2]) came to 590 nM.
With “poly(HPMA-co-Ma-β-Ala-ATTO488-co-Ma-β-Ala-NH-biotin) [Conjugate 2]”, in assay [1], the “inhibition of the activity of GCPII” value is “did not inhibit the activity of GCPII”. Moreover, on CA-IX, the “affinity isolation / binding of CA-IX from lysate of HT-29 cells” value is “no binding of CA-IX”.
